Assay [1] concerns the target T1, LK35.2-hPD-L1 cells / PE-labeled PD-1-Ig (Homo sapiens, UniProt Q9NZQ7).
T1 construct: expressed in transfected cells; host or cells: LK35.2 mouse B cell line
As to the kind of experiment: LK35.2-hPD-L1 cell binding high-content screening assay. Format: cell-based. The following applies: cluster symbol, read-out: CBA IC50 cluster. Put shortly:
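Readout: high-content imaging of PE-PD-1-Ig bound to LK35.2-hPD-L1 cells. Cells plated overnight (RPMI/10% FCS); compound + 1 nM PE-PD-1-Ig, 1 h, 37 °C; 3× dPBS wash before imaging.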

Assay [2] concerns the target T2, Human PD-L1/PD-1 (Homo sapiens, UniProt Q9NZQ7).
T2 construct: made in house; host or cells: HEK293T
As to the kind of experiment: HTRF PD-1-Ig/PD-L1-His binding assay (human PD-L1). The settings on record: cluster symbol; read-out: HTRF IC50 cluster. Put shortly:
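Steps: truncated PD-1-Ig and PD-L1-His fusions are incubated in dPBS containing 0.1% (w/v) BSA and 0.05% (v/v) Tween-20. Detection antibodies are then added (Eu cryptate anti-Ig at 1 nM final, APC anti-His at 20 nM final), and time-resolved FRET is measured.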
Background: TR-FRET usually uses a lanthanide donor and a delayed reading to cut background.

The mark [3] stands for this setting: cell line of CBA not given (LK35.2-hPD-L1 or 293T-hPD-L1).
[4] abbreviates: cell binding assay, cell line not given.

Each structure is given as a SMILES string. Like-named read-outs stand apart in the source and are kept apart here. Positions of bridges follow the written chain, without caps; N, C: chain ends. Non-standard residues stand in square brackets, D forms with d. Residues, ends and D or L forms follow the SMILES beside them. ξ: configuration not given here. Phe(4-guanidino) = N=C(N)Nc1ccc(C[C@H](N)C(=O)O)cc1; Phe(3,4,5-F3) = N[C@@H](Cc1cc(F)c(F)c(F)c1)C(=O)O; Phe(4-CH2NH2) = NCc1ccc(C[C@H](N)C(=O)O)cc1; Phe(3-Cl) = N[C@@H](Cc1cccc(Cl)c1)C(=O)O; d(cisHyp) = O=C(O)[C@H]1C[C@@H](O)CN1; Bta = N[C@@H](Cc1csc2ccccc12)C(=O)O; Hyp = O=C(O)[C@@H]1C[C@@H](O)CN1; NMeF = CN[C@@H](Cc1ccccc1)C(=O)O; 4Pal = N[C@@H](Cc1ccncc1)C(=O)O; dNMeE = CN[C@H](CCC(=O)O)C(=O)O; NMeNle = CCCC[C@H](NC)C(=O)O; NMeM = CN[C@@H](CCSC)C(=O)O; NMeA = CN[C@@H](C)C(=O)O; Dap = NC[C@H](N)C(=O)O; ξC = NC(CS)C(=O)O; Sar = CNCC(=O)O

T2 sequence (Q9NZQ7 with tags, fused parts or gaps): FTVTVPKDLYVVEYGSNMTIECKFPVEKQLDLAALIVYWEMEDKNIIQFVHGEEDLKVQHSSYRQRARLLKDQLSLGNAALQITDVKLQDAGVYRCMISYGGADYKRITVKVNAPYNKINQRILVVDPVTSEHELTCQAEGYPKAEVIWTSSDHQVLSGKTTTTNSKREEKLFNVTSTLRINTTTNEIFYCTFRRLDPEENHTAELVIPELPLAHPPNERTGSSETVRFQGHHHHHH
T1 sequence (Q9NZQ7 19-290): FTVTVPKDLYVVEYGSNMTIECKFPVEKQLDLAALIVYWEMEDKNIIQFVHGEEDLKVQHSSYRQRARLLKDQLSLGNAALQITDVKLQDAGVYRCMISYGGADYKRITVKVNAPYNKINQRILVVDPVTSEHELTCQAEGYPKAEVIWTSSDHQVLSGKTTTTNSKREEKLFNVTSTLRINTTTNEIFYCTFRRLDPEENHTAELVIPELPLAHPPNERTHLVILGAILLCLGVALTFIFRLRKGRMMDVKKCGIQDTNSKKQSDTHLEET

One may read the IC50 as the concentration that gives 50% inhibition. Turning to `CCCC[C@H]1C(=O)N(C)[C@@H](CCCC)C(=O)N[C@@H](CCCCN)C(=O)N[C@H](C(=O)NCC(N)=O)CSCC(=O)N[C@@H](Cc2ccc(O)cc2)C(=O)N(C)[C@@H](C)C(=O)N[C@@H](CC(N)=O)C(=O)N2CCC[C@H]2C(=O)N[C@@H](Cc2cnc[nH]2)C(=O)N[C@@H](CC(C)C)C(=O)N2CCC[C@H]2C(=O)N[C@@H](Cc2c[nH]c3ccccc23)C(=O)N[C@@H](CO)C(=O)N[C@@H](Cc2csc3ccccc23)C(=O)N1C` [Example 1041] ({CH2CO}-Y[NMeA]NPHLPWS[Bta][NMeNle][NMeNle]KCG-NH2; thioether N-14), the IC50 in assay [1] (setting [3]) is 0.158 to 4.71 nM; in assay [2], 6.76 to 30.3 nM.
With `CCCC[C@H]1C(=O)N(C)CC(=O)N[C@@H](CC(=O)O)C(=O)N[C@@H](Cc2ccc(O)cc2)C(=O)N(C)[C@@H](Cc2ccccc2)C(=O)N[C@@H](Cc2ccc(O)cc2)C(=O)N(C)CC(=O)N[C@@H](Cc2c[nH]c3ccccc23)C(=O)N[C@@H](Cc2ccc(O)cc2)C(=O)N[C@@H](CC(C)C)C(=O)N[C@H](C(=O)NCC(N)=O)CSCC(=O)N[C@@H](Cc2ccccc2)C(=O)N(C)[C@@H](Cc2ccccc2)C(=O)N1C` [Example 3503] (HELM PEPTIDE1{[O=C(C[*:3])[*:2]].F.[meF].[CCCC[C@@H](C(=O)[*:2])N(C)[*:1]].[Sar].D.Y.[meF].Y.[Sar].W.Y.L.C.G.[am]}$PEPTIDE1,PEPTIDE1,1:R3-14:R3$$$V2.0), the IC50 was above 74.3 nM in assay [1] (setting [4]) and above 30.5 nM in assay [2].
In the case of `CCCC[C@H]1C(=O)N[C@@H](CCCNC(=N)N)C(=O)NC(C(=O)NCC(N)=O)CSCC(=O)N[C@@H](Cc2ccc(O)cc2)C(=O)N(C)[C@@H](C)C(=O)N[C@@H](CC(N)=O)C(=O)N2CCC[C@H]2C(=O)N[C@@H](CN)C(=O)N[C@@H](CC(C)C)C(=O)N2CCC[C@H]2C(=O)N[C@@H](Cc2c[nH]c3ccccc23)C(=O)N[C@@H](CO)C(=O)N[C@@H](Cc2c[nH]c3ccccc23)C(=O)N(C)[C@@H](CCSC)C(=O)N1C` (some centres unmarked) [Example 9089] ({CH2CO}-Y[NMeA]NP[Dap]LPWSW[NMeM][NMeNle]R[ξC]G-NH2; thioether N-14), the values for the IC50 in assay [1] (setting [4]) and in assay [2] were 0.158 to 4.71 nM and 0.385 to 6.74 nM, respectively.
For `CCCC[C@H]1C(=O)N(C)CC(=O)N[C@@H](CC(=O)O)C(=O)N[C@@H](C(C)C)C(=O)N(C)[C@@H](Cc2ccccc2)C(=O)N[C@@H](Cc2ccc(O)cc2)C(=O)N(C)CC(=O)N[C@@H](Cc2csc3ccccc23)C(=O)N[C@@H](Cc2ccc(O)cc2)C(=O)N[C@@H](CC(C)C)C(=O)N[C@H](C(=O)NCC(N)=O)CSCC(=O)N[C@@H](Cc2cccc(Cl)c2)C(=O)N(C)[C@@H](Cc2ccccc2)C(=O)N1C` [Example 3114] ({CH2CO}-[Phe(3-Cl)][NMeF][NMeNle][Sar]DV[NMeF]Y[Sar][Bta]YLCG-NH2; thioether N-13), the results for the IC50 in assay [1] (setting [3]) and in assay [2] were 4.78 to 72.9 nM and 6.76 to 30.3 nM, respectively.
On to `CCCC[C@H]1C(=O)N[C@@H](CCCNC(=N)N)C(=O)NC(C(=O)NCC(N)=O)CSCC(=O)N[C@@H](Cc2ccc(O)cc2)C(=O)N(C)[C@@H](C)C(=O)N[C@@H](CC(N)=O)C(=O)N2CCC[C@H]2C(=O)N[C@@H](Cc2cnc[nH]2)C(=O)N[C@@H](CC(C)C)C(=O)N2C[C@H](O)C[C@H]2C(=O)N[C@@H](Cc2c[nH]c3ccccc23)C(=O)N[C@@H](CO)C(=O)N[C@@H](Cc2c[nH]c3ccccc23)C(=O)N(C)[C@@H](CCOC)C(=O)N1C` (some centres unmarked) [Example 9004], for which the values for the IC50 in assay [1] (setting [4]) and in assay [2] were 4.78 to 72.9 nM and 0.385 to 6.74 nM, respectively.
In the case of `CCCC[C@H]1C(=O)N(C)[C@@H](C)C(=O)N[C@@H](CCCNC(=N)N)C(=O)NC(C(=O)NCC(N)=O)CSCC(=O)N[C@@H](Cc2ccc(O)cc2)C(=O)N(C)[C@@H](C)C(=O)N[C@@H](CC(N)=O)C(=O)N2CCC[C@H]2C(=O)N[C@@H](Cc2cnc[nH]2)C(=O)N[C@@H](CC(C)C)C(=O)N2C[C@H](O)C[C@H]2C(=O)N[C@@H](Cc2c[nH]c3ccccc23)C(=O)N[C@@H](CO)C(=O)N[C@@H](Cc2csc3ccccc23)C(=O)N1C` (some centres unmarked) [Example 9058] ({CH2CO}-Y[NMeA]NPHL[Hyp]WS[Bta][NMeNle][NMeA]R[ξC]G-NH2; thioether N-14), the IC50 in assay [1] (setting [4]) was in the range of 0.158 to 4.71 nM; in assay [2] it was 0.385 to 6.74 nM.
Take `CCCC[C@H]1C(=O)N(C)CC(=O)N[C@@H](CC(=O)O)C(=O)N[C@@H](C(C)C)C(=O)N(C)[C@@H](Cc2ccccc2)C(=O)N[C@@H](Cc2ccc(O)cc2)C(=O)N(C)CC(=O)N[C@@H](Cc2c[nH]c3ccccc23)C(=O)N[C@@H](Cc2ccc(O)cc2)C(=O)N[C@@H](CCCN)C(=O)N[C@H](C(=O)NCC(N)=O)CSCC(=O)N[C@@H](Cc2ccccc2)C(=O)N(C)[C@@H](Cc2ccccc2)C(=O)N1C` [Example 3163] (HELM PEPTIDE1{[O=C(C[*:3])[*:2]].F.[meF].[CCCC[C@@H](C(=O)[*:2])N(C)[*:1]].[Sar].D.V.[meF].Y.[Sar].W.Y.[Orn].C.G.[am]}$PEPTIDE1,PEPTIDE1,1:R3-14:R3$$$V2.0): the IC50 in assay [1] (setting [3]) is 4.78 to 72.9 nM; in assay [2], 6.76 to 30.3 nM.
Take `CCCC[C@H]1C(=O)N(C)[C@@H](CCCC)C(=O)N[C@@H](CCCNC(=N)N)C(=O)N[C@H](C(=O)NCC(N)=O)CSCC(=O)N[C@@H](Cc2ccc(N=C(N)N)cc2)C(=O)N(C)[C@@H](C)C(=O)N[C@@H](CC(N)=O)C(=O)N2CCC[C@H]2C(=O)N[C@@H](CN)C(=O)N[C@@H](CC(C)C)C(=O)N2C[C@H](O)C[C@H]2C(=O)N[C@@H](Cc2c[nH]c3ccccc23)C(=O)N[C@@H](CO)C(=O)N[C@@H](Cc2c[nH]c3ccccc23)C(=O)N1C` [Example 7064] ({CH2CO}-[Phe(4-guanidino)][NMeA]NP[Dap]L[Hyp]WSW[NMeNle][NMeNle]RCG-NH2; thioether N-14): the IC50 in assay [1] (setting [4]) is above 74.3 nM; in assay [2] it was above 30.5 nM.
Take `CCCC[C@H]1C(=O)N(C)[C@@H](CCCC)C(=O)N[C@@H](CCCNC(=N)N)C(=O)N[C@H](C(=O)NCC(N)=O)CSCC(=O)N[C@@H](Cc2ccc(O)cc2)C(=O)N(C)[C@@H](C)C(=O)N[C@@H](CC(N)=O)C(=O)N2CCC[C@H]2C(=O)N[C@@H](Cc2ccncc2)C(=O)N[C@@H](CC(C)C)C(=O)N2C[C@H](O)C[C@H]2C(=O)N[C@@H](Cc2c[nH]c3ccccc23)C(=O)N[C@@H](CO)C(=O)N[C@@H](Cc2c[nH]c3ccccc23)C(=O)N1C` [Example 7028] ({CH2CO}-Y[NMeA]NP[4Pal]L[Hyp]WSW[NMeNle][NMeNle]RCG-NH2; thioether N-14): the IC50 in assay [1] (setting [4]) lay in the range of 0.158 to 4.71 nM; in assay [2], 6.76 to 30.3 nM.
For `CCCC[C@H]1C(=O)N(C)[C@@H](CCCC)C(=O)N[C@@H](CCCNC(=N)N)C(=O)NC(C(=O)NCC(N)=O)CSCC(=O)N[C@@H](Cc2ccc(O)cc2)C(=O)N(C)[C@@H](C)C(=O)N[C@@H](CC(N)=O)C(=O)N2CCC[C@H]2C(=O)N[C@@H](Cc2cnc[nH]2)C(=O)N[C@@H](CO)C(=O)N2C[C@H](O)C[C@H]2C(=O)N[C@@H](Cc2c[nH]c3ccccc23)C(=O)N[C@@H](CO)C(=O)N[C@@H](Cc2c[nH]c3ccccc23)C(=O)N1C` (some centres unmarked) [Example 9069] ({CH2CO}-Y[NMeA]NPHS[Hyp]WSW[NMeNle][NMeNle]R[ξC]G-NH2; thioether N-14) the same measures were 0.158 to 4.71 nM and 0.385 to 6.74 nM.
As to `CCCC[C@H]1C(=O)N2CCC[C@@H]2C(=O)N[C@@H](CC(N)=O)C(=O)N[C@@H](C(C)C)C(=O)N(C)[C@@H](Cc2ccccc2)C(=O)N[C@@H](Cc2ccc(CN)cc2)C(=O)N2CCC[C@@H]2C(=O)N[C@@H](Cc2c[nH]c3ccccc23)C(=O)N[C@@H](Cc2ccc(O)cc2)C(=O)N[C@@H](CCCCN)C(=O)N[C@H](C(=O)NCC(N)=O)CSCC(=O)N[C@@H](Cc2cc(F)c(F)c(F)c2)C(=O)N(C)[C@@H](Cc2ccccc2)C(=O)N1C` [Example 3198] ({CH2CO}-[Phe(3,4,5-F3)][NMeF][NMeNle][dP]NV[NMeF][Phe(4-CH2NH2)][dP]WYKCG-NH2; thioether N-13), the results for the IC50 in assay [1] (setting [3]) and in assay [2] were 0.158 to 4.71 nM and 6.76 to 30.3 nM, respectively.
As to `CCCC[C@H]1C(=O)N2C[C@H](O)C[C@@H]2C(=O)N[C@@H](CC(N)=O)C(=O)N[C@@H](C(C)C)C(=O)N(C)[C@@H](Cc2ccccc2)C(=O)N[C@@H](Cc2ccc(O)cc2)C(=O)N(C)[C@H](CCC(=O)O)C(=O)N[C@@H](Cc2c[nH]c3ccccc23)C(=O)N[C@@H](Cc2ccc(O)cc2)C(=O)N[C@@H](CCCCN)C(=O)N[C@H](C(=O)NCC(N)=O)CSCC(=O)N[C@@H](Cc2ccccc2)C(=O)N(C)[C@@H](Cc2ccccc2)C(=O)N1C` [Example 3594] ({CH2CO}-F[NMeF][NMeNle][d(cisHyp)]NV[NMeF]Y[dNMeE]WYKCG-NH2; thioether N-13), the IC50 is 0.158 to 4.71 nM in assay [1] (setting [4]) and 6.76 to 30.3 nM in assay [2].
As to `CCCC[C@H]1C(=O)N(C)CC(=O)N[C@@H](CC(=O)O)C(=O)N[C@@H](C(C)C)C(=O)N(C)[C@@H](Cc2ccccc2)C(=O)N[C@@H](Cc2ccc(O)cc2)C(=O)N(C)CC(=O)N[C@@H](Cc2c[nH]c3ccccc23)C(=O)N[C@@H](Cc2ccc(O)cc2)C(=O)N[C@@H](CCCNC(=N)N)C(=O)N[C@H](C(=O)NCC(N)=O)CSCC(=O)N[C@@H](Cc2ccccc2)C(=O)N(C)[C@@H](Cc2ccccc2)C(=O)N1C` [Example 3508] (HELM PEPTIDE1{[O=C(C[*:3])[*:2]].F.[meF].[CCCC[C@@H](C(=O)[*:2])N(C)[*:1]].[Sar].D.V.[meF].Y.[Sar].W.Y.R.C.G.[am]}$PEPTIDE1,PEPTIDE1,1:R3-14:R3$$$V2.0), the figures for the IC50 in assay [1] (setting [4]) and in assay [2] were 4.78 to 72.9 nM and 0.385 to 6.74 nM, respectively.

For the origin of these results see patent US9850283B2, “Macrocyclic inhibitors of the PD-1/PD-L1 and CD80(B7-1)/PD-L1 protein/protein interactions” (BRISTOL-MYERS SQUIBB COMPANY, priority 2013, dated 2017).
